In patent US20260269287A1, “ALL-NONAQUEOUS MEMBRANE-FREE FLOW BATTERIES” (University of Cincinnati, priority 2023, published 2026):
Values after ≈ are worked out from the molar mass of the structure shown. “Also recorded” adds a separate entry of the source.

What was measured:
Type in all cases: physicochemical
[1] = Solubility of catholyte compounds in the three supporting electrolytes of the triphasic system
From the text: (§1) Selection of the anode and cathode materials. Achieving a high capacity for RFBs requires the selection of redox-active materials with high potential. In this study, Li metal was selected as the anode because of its low electrochemical potential (−3.04 V vs. a standard hydrogen electrode), high energy density, and theoretical capacity (~3,860 mAh/g). Graphite felt (GF) was selected as the cathode owing to its chemical inertness in nonaqueous electrolytes, high electrical conductivity, highly porous structure, and high specific surface area. […] The solubility properties of several redox-active catholyte compounds, including derivatives of phenothiazine, cyclopropenium, 2,2,6,6-tetramethylpiperidinyloxy (TEMPO), anthraquinone (AQ), and ferrocene, were evaluated as the three supporting electrolytes in the triphasic system (FIG. 88). […] The system was evaluated for the potential crossover of 0.5 M C18-PTZ dissolved in the FEC phase. […]
(§2) Selection of the anode and cathode materials. […] The solubility properties of several redox-active catholyte compounds, including derivatives of phenothiazine, cyclopropenium, 2,2,6,6-tetramethylpiperidinyloxy (TEMPO), anthraquinone (AQ), and ferrocene, were evaluated as the three supporting electrolytes in the triphasic system (FIG. 85). […] The system was evaluated for the potential crossover of 0.5 M C18-PTZ dissolved in the FEC phase. […]

[2] = Cyclic voltammetry of C18-PTZ in 0.1 M FEC/LiTFSI
Experimental: Electrochemical characterization. CV studies were carried out to estimate the electrochemical properties of redox material (C18-PTZ) as well as the crossover of redox-active cathode material before and after long-term battery cycling. For CV measurements, 5 mM of C18-PTZ solution were prepared in 0.1 M FEC/LiTFSI electrolyte. A 3-mm glassy carbon was used as the working electrode and was polished with 50 nm Al2O3 before measurements. Platinum wire (0.5 mm) was used as the counter electrodes. A Ag/Ag^+ electrode was used as the reference electrode.
Electrochemical characterization. For the cyclic voltammetry (CV) measurements, C18-PTZ (5 mM) solutions were prepared in FEC/LiTFSI (0.1 M) electrolyte. A glassy carbon disk (CHI Instrument, 3 mm) was used as the working electrode and was polished with aqueous Al2O3(Pine Research Instrumentation, Inc., […]) before the measurements. A piece of Pt wire (Pine Research Instrumentation, Inc., thickness 0.5 mm, purity 99.99%) was used as the counter electrode while an Ag/Ag^+ (MTI Corp) electrode was used as the reference electrode. The CV measurements were performed using a Bio-Logic potentiostat. The charge/discharge performances were evaluated using Land and Bio-Logic potentiostats.

[3] = Solubility test of C18-PTZ in FEC/LiTFSI; conditions: in FEC/LiTFSI (1.2 M)
Experimental: Solubility test. […] The solution was gradually added to a vial containing known amounts of C18-PTZ. Once a clear solution was just obtained, the volume of the electrolyte was determined by an analytical pipette. The solubility of organic compounds was calculated from the ratio of the molar amount to electrolyte volume. These processes are repeated twice, and the averaged values are presented.
Solubility Test. […] The solution was incrementally added to a vial containing known quantities of C18-PTZ. The addition continued until a clear solution was achieved, at which point the volume of the electrolyte was measured using an analytical pipette. Subsequently, the solubility of the organic compounds was calculated by finding the ratio of the molar amount of C18-PTZ to the volume of the electrolyte. This entire process was repeated twice to ensure accuracy, and the averaged values of the solubility were reported as the final result.

[4] = RDE linear sweep voltammetry of C18-PTZ in 0.1 M FEC/LiTFSI; conditions: 1 mM in 0.1 M FEC/LiTFSI
Experimental: To investigate the electrochemical kinetics of C18-PTZ redox molecules, linear sweep voltammetry (LSV) was conducted using the rotating disk electrode (RDE) technique. The LSV curves of C18-PTZ were measured in electrolyte solutions containing 1.0 mM C18-PTZ in 0.1 M FEC/LiTFSI solution, and the results are presented in FIG. 68(a).
Calculation of diffusion coefficient and electron transfer rate. Linear sweep voltammetry (LSV) studies were carried out using a Pine modulated speed rotator with Biologic potentiostats. Rotating disk electrode (RDE, diameter: 5 mm), Pt wire electrode and Ag/Ag^+ electrode were used as the working, counter and reference electrodes, respectively. Before testing, the samples were purged with argon for 10 min. LSV dates were collected at different rotation rates ranging from 100 to 1600 rpm. The diffusion coefficient (Do) of electroactive materials were calculated from the Levich plot using Equation 1.
The kinetic rate constant is calculated by Equation 2.
The LSV investigations were conducted using a Pine modulated speed rotator paired with Biologic potentiostats. […] The diffusion coefficient (D) of electroactive materials was calculated from the Lévich plot using Equation 1. The kinetic rate constant is calculated by Equation 2.

[5] = Crossover study of C18-PTZ in the Design-I triphasic system under static conditions (UV-visible, CV); conditions: 0.5 M in FEC phase, 10-day period
From the text: as §1, §2

- solubility in TEGDME and NFTTS ([1]; anolyte and intermediate layers of triphasic system): poor solubility
- solubility in FEC ([1]; catholyte solvent of triphasic system): high solubility
- redox couple potential ([2]; 5 mM in 0.1 M FEC/LiTFSI): 0.35 V vs. Ag/Ag^+
- peak potential separation ([2]; scan rate 50 mV/s): 68 mV
- peak potential separations ([2]; scan rate 50 mV/s, unit not given): ~ 68
- ratio of cathodic peak current (ipc) and anodic peak current (ipa) ([2]; scan rates 50 to 250 mV/s): approximately 1
- solubility [3]: 500 mM (≈ 226 mg/mL)
- diffusion coefficient D ([4]; Levich plot): 6.23×10^−6 cm^2/s
- crossover out of the FEC layer [5]: no significant crossover
Compound: CCCCCCCCCCCCCCCCCCN1c2ccccc2Sc2ccccc21 [C18-PTZ]
- electrochemical stability on repeated CV cycling ([2]; FEC/LiTFSI (0.1 M), 50 mV/s, 500 cycles): excellent electrochemical stability; also recorded: high electrochemical stability
- kinetic rate constant (k0) [4]: 0.00351 cm/s
